Data on eight molecules can be found in patent publication EP0271099A2, “Substituted aminopropionic acid amides, process for their preparation, agents containing them and their use as well as the intermediates formed during the preparation” (HOECHST AKTIENGESELLSCHAFT, priority 1986, dated 1988).

Molecules are shown by their SMILES.

The first test relates to ECS-Amnesie. The test is described as follows: Inhibitory (passive) avoidance test, reversal of amnesia induced by electroconvulsive shock. The class given is in vivo, Mäusen. The following applies: Mus musculus, po, read-out: Inhibitory avoidance MED mg/kg p.o. ECS-Amnesie. The text has this:
Die Verbindungen der Formel I besitzen wertvolle pharmakologische Eigenschaften, insbesondere nootrope. Die nootrope Wirkung der erfindungsgemäßen Verbindungen wurde an Mäusen, die ein Köpergewicht von 20-25 g besaßen, im inhibitory (passive) avoidance test geprüft. Eine modifizierte Form der von J. Kopp, Z. Bodanecky und M.E. Jarvik beschriebenen Testmethode wurde von J. Bures, O. Buresova und J. Huston im "Techniques and Basic Experiments for the Study of Brain and Behavior", Elsevier Scientific Publishers, Amsterdam 1983, beschrieben.
Entsprechend diesen Literaturangaben wird eine Substanz dann als nootrop wirksam bezeichnet, wenn sie bei den Versuchstieren die mittels eines elektroconvulsiven Schocks erzeugte Amnesie (ECS-Amnesie) aufzuheben vermag.
Die Versuche wurden nach modifizierten Testmethoden mit den erfindungsgemäßen Verbindungen durchgeführt. Als Vergleichsverbindung diente das bekannte Nootropikum 2-Oxo-1-pyrrolidinylessigsäureamid (Piracetam). Die deutliche Überlegenheit der erfindungsgemäßen Verbindungen über die Vergleichssubstanz zeigte sich darin, daß der amnestische Effekt bereits mit einer MED (minimal effective dosis) von 0,1-10 mg/kg p.o. aufzuheben ist. Die Vergleichssubstanz hat eine MED von ca. 500-1000 mg/kg p.o..
For the molecule `O=C(O)CCc1ccc(NC(=O)CCN2CC=C(c3cccc(Cl)c3)CC2)cc1` [Beispiel 49, 3-{4-[3-(4-(3-Chlorphenyl)-1,2,5,6-tetrahydropyridino)-propionamido]-phenyl}-propionsäure], the minimal effective dose is 25 mg/kg.

For the molecule `NC(=O)CN1CCCC1=O` [Piracetam, 2-Oxo-1-pyrrolidinylessigsäureamid, reference compound], the minimal effective dose came out at 1000 mg/kg.

The test is the same for the next values; noted with them: Mus musculus, po, read-out: MED (minimal effective dosis).
Consider `NC(=O)CN1CCCC1=O` [Piracetam, 2-Oxo-1-pyrrolidinylessigsäureamid, reference compound], for which the minimal effective dose was 500 to 1000 mg/kg.

Still in this test, the particulars now being: Mus musculus; mice 20-25 g, oral; MED = minimal effective dosis reversing ECS-Amnesie; Table 1; read-out: Inhibitory avoidance MED mg/kg p.o. ECS-Amnesie.
Take `O=C(O)CCc1ccc(NC(=O)CCN2CCN(c3cccc(Cl)c3)CC2)cc1` [Beispiel 34, 3-{4-(3-(4-(3-Chlorphenyl)-piperazino)-propionamido]-phenyl}-propionsäure]: the minimal effective dose came to 1.6 mg/kg. Consider `O=C(O)C=Cc1ccc(NC(=O)CCN2CCN(c3cccc(Cl)c3)CC2)cc1` [Beispiel 35, 4-{3-[4-(3-Chlorphenyl)-piperazino]-propionamido}-zimtsäure], for which the minimal effective dose was 50 mg/kg.

For `O=C(O)CCCc1ccc(NC(=O)CCN2CCC(c3ccccc3)CC2)cc1` [Beispiel 45, 4-{4-[3-(4-Phenylpiperidino)-propionamido]-phenyl}-buttersäure], the minimal effective dose came to 25 mg/kg. As for `O=C(O)CCc1ccc(NC(=O)CCN2CCN(c3ccccc3)CC2)cc1` [Beispiel 46, 3-{4-[3-(4-Phenylpiperazino)-propionamido]-phenyl}-propionsäure], the minimal effective dose is 25 mg/kg. Take `O=C(O)CCc1ccc(NC(=O)CCN2CCN(CCCc3ccccc3)CC2)cc1` [Beispiel 47, 3-{4-[3-(4-(3-Phenylpropyl)-piperazino)-propionamido]-phenyl}-propionsäure]: the minimal effective dose stood at 25 mg/kg.

As for `O=C(O)CCc1ccc(NC(=O)CCNCCCc2ccccc2)cc1` [Beispiel 48, 3-{4-[3-(3-Phenylpropylamino)-propionamido]-phenyl}-propionsäure], the minimal effective dose stood at 50 mg/kg.
